Experiments:
[1] = molecular target: T1, human SGLT1 (Homo sapiens, UniProt P13866); assay: SGLT1 in vitro assay: Na-dependent 14C-AMG uptake in CHO-K1 cells stably expressing human SGLT1; assay type: cell-based; settings: CHO-K1 cells stably expressing human SGLT1, 14C-AMG uptake; for inhibition at 0.3 µM: read-out: SGLT1 % Inh @ 0.3 μM; for IC50: compounds of formula (I) where R0 is fluoro
T1 construct: expressed in transfected cells
T1 sequence (P13866 1-664): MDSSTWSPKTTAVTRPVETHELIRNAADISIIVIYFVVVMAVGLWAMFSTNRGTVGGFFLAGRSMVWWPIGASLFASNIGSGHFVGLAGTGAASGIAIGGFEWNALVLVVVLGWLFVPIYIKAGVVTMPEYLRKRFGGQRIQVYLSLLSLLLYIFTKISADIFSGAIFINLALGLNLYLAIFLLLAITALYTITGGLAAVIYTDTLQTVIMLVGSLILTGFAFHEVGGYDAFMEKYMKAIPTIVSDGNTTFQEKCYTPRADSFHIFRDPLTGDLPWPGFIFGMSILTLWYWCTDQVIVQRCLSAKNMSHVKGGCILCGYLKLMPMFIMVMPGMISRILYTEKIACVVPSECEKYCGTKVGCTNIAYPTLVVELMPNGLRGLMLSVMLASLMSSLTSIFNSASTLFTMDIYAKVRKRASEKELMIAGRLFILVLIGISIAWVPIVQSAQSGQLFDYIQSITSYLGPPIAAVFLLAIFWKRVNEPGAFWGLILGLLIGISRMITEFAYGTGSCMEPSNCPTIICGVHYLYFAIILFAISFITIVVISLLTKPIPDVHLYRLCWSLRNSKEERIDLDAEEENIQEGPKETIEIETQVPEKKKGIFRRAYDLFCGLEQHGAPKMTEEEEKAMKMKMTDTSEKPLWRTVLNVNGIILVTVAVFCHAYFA
Experimental: (§1) Biological Example 1: SGLT1 and SGLT2 In Vitro Assays
(§2) The ability of the compounds of formula (I) of the present invention to treat an SGLT-mediated condition was determined using the following procedures:
(§3) SGLT1 and SGLT2 were cloned in form of cDNA from human small intestine (Genbank M24847), and from human kidney (Genbank M95549), respectively. Subsequently, each full cDNA was subcloned into pcDNA with each construct's integrity verified through follow-on sequencing. To generate CHO-K1 cells that stably express human SGLT1 or human SGLT2, CHO-K1 cells were transfected using DMRIE-C reagent (Life Technologies, Gaithersburg, Md.). Transfected cells were then selected in the presence of 500 μg/ml of the Geneticin (G418 Cellgro Catalog No. 30234-CI)
(§4) Individual clones were then characterized using the following cell-based assay for sodium-dependent glucose transport:
(§5) Inhibition of SGLT1 and SGLT2 activity was assessed in CHO K1 cells stably expressing either human SGLT1 or SGLT2, using the SGLT specific glucose analog methyl-glucopyranoside (Sigma Catalog No. M-9376). Cells were plated (45,000 cells/well) in white wall 96-well plates (COSTAR, Cat #3903) for 24 hours in growth medium, then a final concentration of 10 mM Na-Butyrate (ALDRICH Cat #30341-0) was added. The cells were incubated for 24 hours. On the day of the assay, cells were rinsed and treated with test compounds (at concentrations of 0.001 μM to 10 μM) in assay buffer (50 mM HEPES, 20 mM Tris base, 5 mM KCl, 1 mM MgCl2, 1 mM CaCl2 and 137 mM NaCl, pH 7.4) for 10 minutes. Cells were then incubated with ^14C-a-methyl-d-glucopyranoside (AMG, Amersham Catalog No. CFB 76), using 0.07 μCi per well in 500 µM AMG final concentration. The cells were incubated for 2 hours at 37° C. with 5% CO2 and washed two times with ice-cold Phosphate Buffer Solution (CELLGRO Catalog No. 21030-CV). The cells were then solubilized by adding 60 μl of MICROSCINT™ 20 and the Na-dependent ^14C-AMG uptake was quantified by measuring radioactivity. Plates were counted in a TopCount (Packard, Meriden, Conn.)
(§6) Representative compounds of the present invention were tested according to the procedures as described in Biological Example 1 and 2 above, with results as listed in Table 5, below. Results are reported as the %-inhibition or IC50 value. Variability for the functional assay was typically within 20%.

[2] = molecular target: T2, human SGLT2 (Homo sapiens, UniProt P31639); assay: SGLT2 in vitro assay: Na-dependent 14C-AMG uptake in CHO-K1 cells stably expressing human SGLT2; assay type: cell-based; settings: CHO-K1 cells stably expressing human SGLT2, 14C-AMG uptake; for inhibition at 0.3 µM: read-out: SGLT2 % Inh @ 0.3 μM; for IC50: compounds of formula (I) where R0 is fluoro
T2 construct: expressed in transfected cells
T2 sequence (P31639 1-672): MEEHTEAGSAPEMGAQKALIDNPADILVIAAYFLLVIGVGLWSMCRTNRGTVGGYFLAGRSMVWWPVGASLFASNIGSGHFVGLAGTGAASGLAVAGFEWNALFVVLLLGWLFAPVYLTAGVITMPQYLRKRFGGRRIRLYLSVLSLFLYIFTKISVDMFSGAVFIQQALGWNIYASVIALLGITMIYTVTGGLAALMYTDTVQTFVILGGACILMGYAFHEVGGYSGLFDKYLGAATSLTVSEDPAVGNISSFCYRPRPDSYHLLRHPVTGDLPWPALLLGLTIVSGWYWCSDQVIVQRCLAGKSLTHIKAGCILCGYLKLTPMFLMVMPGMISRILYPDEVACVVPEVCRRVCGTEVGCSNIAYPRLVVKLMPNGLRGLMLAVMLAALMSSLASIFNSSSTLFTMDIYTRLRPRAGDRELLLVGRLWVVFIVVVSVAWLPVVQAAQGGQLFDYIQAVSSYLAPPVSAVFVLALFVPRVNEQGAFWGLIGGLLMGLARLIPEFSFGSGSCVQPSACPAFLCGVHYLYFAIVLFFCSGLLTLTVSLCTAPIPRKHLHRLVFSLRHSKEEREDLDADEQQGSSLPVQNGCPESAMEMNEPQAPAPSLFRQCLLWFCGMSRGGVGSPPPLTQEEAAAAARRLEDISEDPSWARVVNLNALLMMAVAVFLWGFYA
Experimental: as §1, §2, §3, §4, §5, §6

Structure (SMILES)	inhibition at 0.3 µM [1] [%]	IC50 [1] [µM]	inhibition at 0.3 µM [2] [%]	IC50 [2] [µM]	SGLT1 % Inh @ 0.3 μM [1] [%]	SGLT2 % Inh @ 0.3 μM [2] [%]
Cc1cc(OCC#N)c([C@@H]2O[C@H](CO)C(F)(F)[C@H](O)[C@H]2O)cc1Cc1cc2ccccc2s1 [Compound 40, 2-[4-(benzothiophen-2-ylmethyl)-2-[(2S,3R,4R,6R)-5,5-difluoro-3,4-dihydroxy-6-(hydroxymethyl)tetrahydropyran-2-yl]-5-methyl-phenoxy]acetonitrile]	54	0.176	85.4	0.0035	–	–
CCOc1cc(C)c(Cc2cc3ccccc3s2)cc1[C@@H]1O[C@H](CO)C(F)(F)[C@H](O)[C@H]1O [Compound 41]	–	–	–	–	5.8	85.4
Cc1cc(OC(C)C)c([C@@H]2O[C@H](CO)C(F)(F)[C@H](O)[C@H]2O)cc1Cc1cc2ccccc2s1 [Compound 42]	–	–	–	–	8.9	74.3
OC[C@H]1O[C@@H](c2cc(Cc3ccc4c(c3)OCCO4)c(Cl)cc2O)[C@H](O)[C@@H](O)C1(F)F [Compound 45, (2S,3R,4R,6R)-2-[4-chloro-5-(2,3-dihydro-1,4-benzodioxin-6-ylmethyl)-2-hydroxy-phenyl]-5,5-difluoro-6-(hydroxymethyl)tetrahydropyran-3,4-diol]	81.7	0.049	82	0.0014	–	–
OC[C@H]1O[C@@H](c2cc(Cc3ccc([C@@H]4CCOC4)cc3)c(Cl)cc2O)[C@H](O)[C@@H](O)C1(F)F [Compound 46]	–	–	–	–	18.4	89.0
CCOc1ccc(Cc2cc([C@@H]3O[C@H](CO)C(F)(F)[C@H](O)[C@H]3O)c(O)cc2C)cc1 [Compound 47, (2S,3R,4R,6R)-2-(5-(4-ethoxybenzyl)-2-hydroxy-4-methylphenyl)-5,5-difluoro-6-(hydroxymethyl)tetrahydro-2H-pyran-3,4-diol]	47.9	0.25	61.2	0.0018	–	–
COc1cc(Cl)c(Cc2ccc3c(c2)OCCO3)cc1[C@@H]1O[C@H](CO)C(F)(F)[C@H](O)[C@H]1O [Compound 48, (2S,3R,4R,6R)-2-[4-chloro-5-(2,3-dihydro-1,4-benzodioxin-6-ylmethyl)-2-methoxy-phenyl]-5,5-difluoro-6-(hydroxymethyl)tetrahydropyran-3,4-diol]	36.5	–	78.1	–	–	–
CCOc1ccc(Cc2cc([C@@H]3O[C@H](CO)C(F)(F)[C@H](O)[C@H]3O)c(OC)cc2C)cc1 [Compound 49]	–	–	–	–	23.2	79.2
COc1cc(Cl)c(Cc2ccc([C@@H]3CCOC3)cc2)cc1[C@@H]1O[C@H](CO)C(F)(F)[C@H](O)[C@H]1O [Compound 50]	–	–	–	–	20.4	84.4
N#CCOc1cc(Cl)c(Cc2cc3ccccc3s2)cc1[C@@H]1O[C@H](CO)C(F)(F)[C@H](O)[C@H]1O [Compound 51]	–	–	–	–	30.8	82.0
Cc1cc(O)c([C@@H]2O[C@H](CO)C(F)(F)[C@H](O)[C@H]2O)cc1Cc1cc2cc(F)ccc2s1 [Compound 52]	41.3	0.229	81.2	0.019	–	–
COc1cc(C)c(Cc2cc3cc(F)ccc3s2)cc1[C@@H]1O[C@H](CO)C(F)(F)[C@H](O)[C@H]1O [Compound 53]	–	–	–	–	0.0	87.1
COc1cc(O)c([C@@H]2O[C@H](CO)C(F)(F)[C@H](O)[C@H]2O)cc1Cc1ccc2c(c1)OCCO2 [Compound 54, (2S,3R,4R,6R)-2-[5-(2,3-dihydro-1,4-benzodioxin-6-ylmethyl)-2-hydroxy-4-methoxy-phenyl]-5,5-difluoro-6-(hydroxymethyl)tetrahydropyran-3,4-diol]	41.8	0.895	52.8	0.0263	–	–

Reference: US20210238170A1, “5,5-Difluoro- and 5-Fluoro-5-Methyl-C-Glycoside Derivatives Useful As Dual SGLT1 / SGLT2 Modulators” (Janssen Pharmaceutica NV, priority 2018, published 2021)
